Measurements: US20240383886A1, “Protein Tyrosine Phosphatase Degraders and Methods of Use Thereof” (CALICO LIFE SCIENCES LLC, priority 2019, published 2024)

What was measured:
PTPN2 [1] = molecular target: T1, PTPN2 (Homo sapiens, UniProt P17706); assay: HiBiT-Degradation 293T.109 PTPN2 (Nano-Glo HiBiT Lytic Assay); format: cell-based; conditions: 293T.109 (HiBiT-PTPN2) cells, 24.0 hours
T1 construct: expressed in transfected cells; host or cells: 293T (293T.109 HiBiT-PTPN2 line; parental 293T WT from ATCC)
T1 sequence (P17706 1-415): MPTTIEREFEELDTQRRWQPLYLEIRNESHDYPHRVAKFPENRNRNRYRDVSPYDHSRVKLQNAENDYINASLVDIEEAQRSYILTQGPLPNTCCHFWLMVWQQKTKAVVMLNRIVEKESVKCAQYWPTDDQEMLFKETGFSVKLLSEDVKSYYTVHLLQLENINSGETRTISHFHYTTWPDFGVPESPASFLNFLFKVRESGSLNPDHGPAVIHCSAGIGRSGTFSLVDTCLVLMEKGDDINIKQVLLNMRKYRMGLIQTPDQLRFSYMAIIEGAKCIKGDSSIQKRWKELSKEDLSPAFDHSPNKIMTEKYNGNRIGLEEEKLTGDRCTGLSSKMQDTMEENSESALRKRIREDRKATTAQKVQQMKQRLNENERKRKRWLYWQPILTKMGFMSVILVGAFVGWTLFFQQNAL
Procedure, shortened: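 293T cells ectopically expressing N-terminally HiBiT-tagged PTPN2 were seeded at 5000 cells/well. They were treated with an 11-point half-log titration from 10 μM, in duplicate, for 24 hours at 37° C., 5% CO2. Remaining tagged PTPN2 was quantified by lytic HiBiT luminescence against untreated and no-reagent controls.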

PTPN2 [2] = assay: HiBiT-Degradation B16F10.4 PTPN2; format: cell-based; conditions: B16F10.4 cells, 24.0 hours

## Cn1c(=O)n(C2CCC(=O)NC2=O)c2ccc(C3CCN(CC(=O)N4CC[C@@H](COc5ccc6cc(O)c(N7CC(=O)NS7(=O)=O)c(F)c6c5)C4)CC3)cc21 (stereo partly drawn) [Example 131, 3-[5-[1-[2-[(3R)-3-[[8-fluoro-6-hydroxy-7-(1,1,4-trioxo-1,2,5-thiadiazolidin-2-yl)-2-naphthyl]oxymethyl]pyrrolidin-1-yl]-2-oxo-ethyl]-4-piperidyl]-3-methyl-2-oxo-benzimidazol-1-yl]piperidine-2,6-dione]
PTPN2 [1]
  DC50: 0.01 to 0.05 µM
PTPN2 [2]
  DC50: 0.05 to 0.2 µM

## Cn1c(=O)n(C2CCC(=O)NC2=O)c2ccc(Nc3ccc(NC(=O)c4ccc5c(F)c(N6CC(=O)NS6(=O)=O)c(O)cc5c4)cc3)cc21 (centres unmarked) [Example 132]
PTPN2 [1]
  DC50: 0.05 to 0.2 µM
PTPN2 [2]
  DC50: 0.2 to 1 µM

## Cn1c(=O)n(C2CCC(=O)NC2=O)c2ccc(C3CCN(CC(=O)N4CC[C@H](COc5ccc6cc(O)c(N7CC(=O)NS7(=O)=O)c(F)c6c5)C4)CC3)cc21 (stereo partly drawn) [Example 133, 3-[5-[1-[2-[(3S)-3-[[8-fluoro-6-hydroxy-7-(1,1,4-trioxo-1,2,5-thiadiazolidin-2-yl)-2-naphthyl]oxymethyl]pyrrolidin-1-yl]-2-oxo-ethyl]-4-piperidyl]-3-methyl-2-oxo-benzimidazol-1-yl]piperidine-2,6-dione]
PTPN2 [1]
  DC50: 0.01 to 0.05 µM
PTPN2 [2]
  DC50: 0.05 to 0.2 µM

## Cn1c(=O)n(C2CCC(=O)NC2=O)c2ccc(C3CCN(CC(=O)N4CCC[C@H](COc5ccc6cc(O)c(N7CC(=O)NS7(=O)=O)c(F)c6c5)C4)CC3)cc21 (stereo partly drawn) [Example 134, 3-[5-[1-[2-[(3S)-3-[[8-fluoro-6-hydroxy-7-(1,1,4-trioxo-1,2,5-thiadiazolidin-2-yl)-2-naphthyl]oxymethyl]-1-piperidyl]-2-oxo-ethyl]-4-piperidyl]-3-methyl-2-oxo-benzimidazol-1-yl]piperidine-2,6-dione]
PTPN2 [1]
  DC50: 0.05 to 0.2 µM
PTPN2 [2]
  DC50: 0.2 to 1 µM

## Cn1c(=O)n(C2CCC(=O)NC2=O)c2ccc(C3CCN(CCn4cc(-c5ccc6cc(O)c(N7CC(=O)NS7(=O)=O)c(F)c6c5)cn4)CC3)cc21 (centres unmarked) [Example 135, 3-[5-[1-[2-[4-[8-fluoro-6-hydroxy-7-(1,1,4-trioxo-1,2,5-thiadiazolidin-2-yl)-2-naphthyl]pyrazol-1-yl]ethyl]-4-piperidyl]-3-methyl-2-oxo-benzimidazol-1-yl]piperidine-2,6-dione]
PTPN2 [1]
  DC50: 0.05 to 0.2 µM
PTPN2 [2]
  DC50: 0.05 to 0.2 µM

## Cn1c(=O)n(C2CCC(=O)NC2=O)c2ccc(C3CCN(CCN4CCC[C@@H](COc5ccc6cc(O)c(N7CC(=O)NS7(=O)=O)c(F)c6c5)C4)CC3)cc21 (stereo partly drawn) [Example 137, 3-[5-[1-[2-[(3R)-3-[[8-fluoro-6-hydroxy-7-(1,1,4-trioxo-1,2,5-thiadiazolidin-2-yl)-2-naphthyl]oxymethyl]-1-piperidyl]ethyl]-4-piperidyl]-3-methyl-2-oxo-benzimidazol-1-yl]piperidine-2,6-dione]
PTPN2 [1]
  DC50: 0.05 to 0.2 µM
PTPN2 [2]
  DC50: 0.05 to 0.2 µM

## Cn1c(=O)n(C2CCC(=O)NC2=O)c2ccc(C3CCN(C(=O)CN4CC[C@H](COc5ccc6cc(O)c(N7CC(=O)NS7(=O)=O)c(F)c6c5)C4)CC3)cc21 (stereo partly drawn) [Example 138, 3-[5-[1-[2-[(3S)-3-[[8-fluoro-6-hydroxy-7-(1,1,4-trioxo-1,2,5-thiadiazolidin-2-yl)-2-naphthyl]oxymethyl]pyrrolidin-1-yl]acetyl]-4-piperidyl]-3-methyl-2-oxo-benzimidazol-1-yl]piperidine-2,6-dione]
PTPN2 [1]
  DC50: 0.05 to 0.2 µM
PTPN2 [2]
  DC50: 0.05 to 0.2 µM

## Cn1c(=O)n(C2CCC(=O)NC2=O)c2ccc(-c3ccc(NC(=O)NCCOc4ccc5cc(O)c(N6CC(=O)NS6(=O)=O)c(F)c5c4)cc3)cc21 (centres unmarked) [Example 139, 1-[4-[1-(2,6-dioxo-3-piperidyl)-3-methyl-2-oxo-benzimidazol-5-yl]phenyl]-3-[2-[[8-fluoro-6-hydroxy-7-(1,1,4-trioxo-1,2,5-thiadiazolidin-2-yl)-2-naphthyl]oxy]ethyl]urea]
PTPN2 [1]
  DC50: 0.05 to 0.2 µM
PTPN2 [2]
  DC50: 0.05 to 0.2 µM

## Cn1c(=O)n(C2CCC(=O)NC2=O)c2ccc(C3CCN(CC(=O)NCCOc4ccc5cc(O)c(N6CC(=O)NS6(=O)=O)c(F)c5c4)CC3(F)F)cc21 (centres unmarked) [Example 140, 2-[4-[1-(2,6-dioxo-3-piperidyl)-3-methyl-2-oxo-benzimidazol-5-yl]-3,3-difluoro-1-piperidyl]-N-[2-[[8-fluoro-6-hydroxy-7-(1,1,4-trioxo-1,2,5-thiadiazolidin-2-yl)-2-naphthyl]oxy]ethyl]acetamide]
PTPN2 [1]
  DC50: 0.05 to 0.2 µM
PTPN2 [2]
  DC50: ≥ 1 µM

## Cn1c(=O)n(C2CCC(=O)NC2=O)c2ccc(C3CCN(C(=O)CN4CC[C@@H](COc5ccc6cc(O)c(N7CC(=O)NS7(=O)=O)c(F)c6c5)C4)CC3)cc21 (stereo partly drawn) [Example 141, 3-[5-[1-[2-[(3R)-3-[[8-fluoro-6-hydroxy-7-(1,1,4-trioxo-1,2,5-thiadiazolidin-2-yl)-2-naphthyl]oxymethyl]pyrrolidin-1-yl]acetyl]-4-piperidyl]-3-methyl-2-oxo-benzimidazol-1-yl]piperidine-2,6-dione]
PTPN2 [1]
  DC50: 0.01 to 0.05 µM
PTPN2 [2]
  DC50: 0.05 to 0.2 µM

## Cn1c(=O)n(C2CCC(=O)NC2=O)c2ccc(N3CCC(CC(=O)N4CCC[C@@H](COc5ccc6cc(O)c(N7CC(=O)NS7(=O)=O)c(F)c6c5)C4)CC3)cc21 (stereo partly drawn) [Example 142, 3-[5-[4-[2-[(3R)-3-[[8-fluoro-6-hydroxy-7-(1,1,4-trioxo-1,2,5-thiadiazolidin-2-yl)-2-naphthyl]oxymethyl]-1-piperidyl]-2-oxo-ethyl]-1-piperidyl]-3-methyl-2-oxo-benzimidazol-1-yl]piperidine-2,6-dione]
PTPN2 [1]
  DC50: 0.05 to 0.2 µM
PTPN2 [2]
  DC50: 0.2 to 1 µM

## Cn1c(=O)n(C2CCC(=O)NC2=O)c2ccc(N3CCC(CC(=O)N4CCC[C@H](COc5ccc6cc(O)c(N7CC(=O)NS7(=O)=O)c(F)c6c5)C4)CC3)cc21 (stereo partly drawn) [Example 143, 3-[5-[4-[2-[(3S)-3-[[8-fluoro-6-hydroxy-7-(1,1,4-trioxo-1,2,5-thiadiazolidin-2-yl)-2-naphthyl]oxymethyl]-1-piperidyl]-2-oxo-ethyl]-1-piperidyl]-3-methyl-2-oxo-benzimidazol-1-yl]piperidine-2,6-dione]
PTPN2 [1]
  DC50: 0.2 to 1 µM
PTPN2 [2]
  DC50: 0.2 to 1 µM

## Cn1c(=O)n(C2CCC(=O)NC2=O)c2ccc(C3CCN(CCC(=O)N4CC[C@H](c5ccc6cc(O)c(N7CC(=O)NS7(=O)=O)c(F)c6c5)C4)CC3)cc21 (some centres unmarked) [Example 144]
PTPN2 [1]
  DC50: 0.01 to 0.05 µM
PTPN2 [2]
  DC50: 0.05 to 0.2 µM

## Cn1c(=O)n(C2CCC(=O)NC2=O)c2ccc(C3CCN(CCC(=O)N4CC[C@@H](c5ccc6cc(O)c(N7CC(=O)NS7(=O)=O)c(F)c6c5)C4)CC3)cc21 (some centres unmarked) [Example 145]
PTPN2 [1]
  DC50: 0.01 to 0.05 µM
PTPN2 [2]
  DC50: 0.05 to 0.2 µM

## Cn1c(=O)n(C2CCC(=O)NC2=O)c2ccc(C3CCN(Cc4nnc(-c5ccc6c(F)c(N7CC(=O)NS7(=O)=O)c(O)cc6c5)o4)CC3)cc21 (centres unmarked) [Example 146, 3-[5-[1-[[5-[5-fluoro-7-hydroxy-6-(1,1,4-trioxo-1,2,5-thiadiazolidin-2-yl)-2-naphthyl]-1,3,4-oxadiazol-2-yl]methyl]-4-piperidyl]-3-methyl-2-oxo-benzimidazol-1-yl]piperidine-2,6-dione]
PTPN2 [1]
  DC50: 0.01 to 0.05 µM
PTPN2 [2]
  DC50: 0.2 to 1 µM

## Cn1c(=O)n(C2CCC(=O)NC2=O)c2ccc(C3CCN(CCN4CCC[C@H](COc5ccc6cc(O)c(N7CC(=O)NS7(=O)=O)c(F)c6c5)C4)CC3)cc21 (stereo partly drawn) [Example 147, 3-[5-[1-[2-[(3S)-3-[[8-fluoro-6-hydroxy-7-(1,1,4-trioxo-1,2,5-thiadiazolidin-2-yl)-2-naphthyl]oxymethyl]-1-piperidyl]ethyl]-4-piperidyl]-3-methyl-2-oxo-benzimidazol-1-yl]piperidine-2,6-dione]
PTPN2 [1]
  DC50: 0.2 to 1 µM
PTPN2 [2]
  DC50: 0.2 to 1 µM

## Cn1c(=O)n(C2CCC(=O)NC2=O)c2ccc(Nc3ccc(CNC(=O)c4ccc5c(F)c(N6CC(=O)NS6(=O)=O)c(O)cc5c4)cc3)cc21 (centres unmarked) [Example 148, N-[[4-[[1-(2,6-dioxo-3-piperidyl)-3-methyl-2-oxo-benzimidazol-5-yl]amino]phenyl]methyl]-5-fluoro-7-hydroxy-6-(1,1,4-trioxo-1,2,5-thiadiazolidin-2-yl)naphthalene-2-carboxamide]
PTPN2 [1]
  DC50: 0.2 to 1 µM
PTPN2 [2]
  DC50: 0.2 to 1 µM

## Cn1c(=O)n(C2CCC(=O)NC2=O)c2ccc(C3CCN(CCN4CC[C@@H](COc5ccc6cc(O)c(N7CC(=O)NS7(=O)=O)c(F)c6c5)C4)CC3)cc21 (stereo partly drawn) [Example 149, 3-[5-[1-[2-[(3R)-3-[[8-fluoro-6-hydroxy-7-(1,1,4-trioxo-1,2,5-thiadiazolidin-2-yl)-2-naphthyl]oxymethyl]pyrrolidin-1-yl]ethyl]-4-piperidyl]-3-methyl-2-oxo-benzimidazol-1-yl]piperidine-2,6-dione]
PTPN2 [1]
  DC50: 0.01 to 0.05 µM
PTPN2 [2]
  DC50: 0.05 to 0.2 µM

## Cn1c(=O)n(C2CCC(=O)NC2=O)c2ccc(C3CCN(CCN4CC[C@H](COc5ccc6cc(O)c(N7CC(=O)NS7(=O)=O)c(F)c6c5)C4)CC3)cc21 (stereo partly drawn) [Example 150, 3-[5-[1-[2-[(3S)-3-[[8-fluoro-6-hydroxy-7-(1,1,4-trioxo-1,2,5-thiadiazolidin-2-yl)-2-naphthyl]oxymethyl]pyrrolidin-1-yl]ethyl]-4-piperidyl]-3-methyl-2-oxo-benzimidazol-1-yl]piperidine-2,6-dione]
PTPN2 [1]
  DC50: 0.05 to 0.2 µM
PTPN2 [2]
  DC50: 0.05 to 0.2 µM
